Results taken from patent US7378090B2, “Alleviation of the memory deficits and memory components of psychiatric dysfunctions by altering atypical PKM activity” (The Research Foundation of State University of New York, priority 2001, dated 2008).
“Also recorded” adds a separate entry of the source.

How the values were obtained:
[1] = system: Drosophila; test: Olfactory-avoidance classical (Pavlovian) conditioning, memory after training; format: in vivo; conditions: for 24-h memory after massed training: wild-type flies fed 25, 50 or 100 μM chelerythrine in sucrose for 3 h, three cycles of massed training
Description: In Drosophila, the best characterized assay for associative learning and memory is an odor-avoidance behavioral task (T. Tully, et al. J. Comp. Physiol. A157, 263-277 (1985) incorporated herein by reference). This classical (Pavlovian) conditioning involves exposing the flies to two odors (the conditioned stimuli, or CS), one at a time, in succession. During one of these odor exposures (the CS+), the flies are simultaneously subjected to electric shock (the unconditioned stimulus, or US), whereas exposure to the other odor (the CS−) lacks this negative reinforcement. Following training, the flies are then placed at a ‘choice point’, where the odors come from opposite directions, and expected to decide which odor to avoid. By convention, learning is defined as the fly's performance when testing occurs immediately after training. A single training trial produces strong learning: a typical response is that >90% of the flies avoid the CS+. Performance of wild-type flies from this single-cycle training decays over a roughly 24-hour period until flies once again distribute evenly between the two odors. Flies can also form long-lasting associative olfactory memories, but normally this requires repetitive training regimens.
Pavlovian learning and memory in Drosophila. To assess learning and memory in Drosophila, an olfactory-avoidance classical (Pavlovian) conditioning protocol was used. […] The performance index (PI) was calculated by subtracting the number of flies making the incorrect choice from those making the correct one, dividing by the total number of flies, and multiplying by 100. To avoid odor-avoidance biases, the PI of each single n was calculated by taking an average performance of two groups of flies, one group trained with the CS+ being OCT, the other with the CS+ being MCH. […]
(§1) A 4% (wt/vol) sucrose solution was used as a vehicle for the chelerythrine feeding. […] Feeding was monitored by placing 1/50 volume of green food coloring into the solutions, which could then be seen in the abdomens of flies after eating. […]

[2] = system: Drosophila; test: Olfactory-avoidance conditioning, learning (tested immediately after single-cycle training); format: in vivo; conditions: wild-type flies fed 100 μM chelerythrine for 3 h
Description: In Drosophila, the best characterized assay for associative learning and memory is an odor-avoidance behavioral task (T. Tully, et al. J. Comp. Physiol. A157, 263-277 (1985) incorporated herein by reference). This classical (Pavlovian) conditioning involves exposing the flies to two odors (the conditioned stimuli, or CS), one at a time, in succession. During one of these odor exposures (the CS+), the flies are simultaneously subjected to electric shock (the unconditioned stimulus, or US), whereas exposure to the other odor (the CS−) lacks this negative reinforcement. […]
Pavlovian learning and memory in Drosophila. […] The performance index (PI) was calculated by subtracting the number of flies making the incorrect choice from those making the correct one, dividing by the total number of flies, and multiplying by 100. To avoid odor-avoidance biases, the PI of each single n was calculated by taking an average performance of two groups of flies, one group trained with the CS+ being OCT, the other with the CS+ being MCH.
as §1

[3] = system: CA1 pyramidal cells; conditions: sustained application of low concentrations; cited from earlier work
[4] = target: T1, PKMζ (Homo sapiens, UniProt Q05513); conditions: cited from earlier work
T1 sequence (Q05513 1-409 isoform Q05513-2): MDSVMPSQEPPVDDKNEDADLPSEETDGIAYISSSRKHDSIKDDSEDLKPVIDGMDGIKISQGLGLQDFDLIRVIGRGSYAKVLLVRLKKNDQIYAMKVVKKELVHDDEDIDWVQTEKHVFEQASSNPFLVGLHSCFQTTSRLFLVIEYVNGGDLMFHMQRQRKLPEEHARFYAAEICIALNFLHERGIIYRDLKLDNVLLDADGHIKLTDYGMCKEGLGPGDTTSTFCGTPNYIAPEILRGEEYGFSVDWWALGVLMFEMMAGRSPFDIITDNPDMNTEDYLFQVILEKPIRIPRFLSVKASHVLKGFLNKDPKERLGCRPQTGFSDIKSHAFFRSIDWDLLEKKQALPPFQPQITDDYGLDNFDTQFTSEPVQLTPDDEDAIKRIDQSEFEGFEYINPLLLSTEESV

[5] = system: Drosophila; conditions: cited from earlier work

COc1ccc2c(c[n+](C)c3c4cc5c(cc4ccc23)OCO5)c1OC [chelerythrine]
24-h memory after massed training [1]: inhibited 24-hour memory formation in a dose-dependent manner | 24-h memory after massed training ([1]; listed as Chelerythrine): inhibits 24-h memory after massed training in a dose-dependent manner | learning [2]: not different; also recorded: unaffected | LTP maintenance [3]: abolished | inhibition of other PKC isotypes ([4]; higher concentrations): inhibits other PKC isotypes at higher concentrations | inhibition of PKMζ ([4]; low concentrations): selectively inhibit PKMζ at low concentrations

C[C@@H]1C[C@@H]([C@H](O)CC2CC(=O)NC(=O)C2)C(=O)[C@@H](C)C1 [cycloheximide]
anesthesia-resistant memory (ARM) ([5]; massed or spaced training): insensitive | memory after spaced training of radish mutants ([5]; radish mutants): completely blocked | long-term memory (LTM) ([5]; spaced training): blocked

B1: FL-MaPKCζ: full-length (FL) mouse atypical PKCζ expressed from heat-shock transgene (protein, UniProt Q02956 1-592, looked up)
chain: MPSRTDPKMDRSGGRVRLKAHYGGDILITSVDAMTTFKDLCEEVRDMCGLHQQHPLTLKWVDSEGDPCTVSSQMELEEAFRLVCQGRDEVLIIHVFPSIPEQPGMPCPGEDKSIYRRGARRWRKLYRANGHLFQAKRFNRGAYCGQCSERIWGLSRQGYRCINCKLLVHKRCHVLVPLTCRRHMDSVMPSQEPPVDDKNDGVDLPSEETDGIAYISSSRKHDNIKDDSEDLKPVIDGVDGIKISQGLGLQDFDLIRVIGRGSYAKVLLVRLKKNDQIYAMKVVKKELVHDDEDIDWVQTEKHVFEQASSNPFLVGLHSCFQTTSRLFLVIEYVNGGDLMFHMQRQRKLPEEHARFYAAEICIALNFLHERGIIYRDLKLDNVLLDADGHIKLTDYGMCKEGLGPGDTTSTFCGTPNYIAPEILRGEEYGFSVDWWALGVLMFEMMAGRSPFDIITDNPDMNTEDYLFQVILEKPIRIPRFLSVKASHVLKGFLNKDPKERLGCRPQTGFSDIKSHAFFRSIDWDLLEKKQTLPPFQPQITDDYGLDNFDTQFTSEPVQLTPDDEDVIKRIDQSEFEGFEYINPLLLSAEESV
modifications: full-length
notes: full-length (FL) mouse atypical PKCζ expressed from heat-shock transgene
24-hour memory after single-cycle training ([1]; transgene induced by 30-min 32° C. heat shock after training): not observed
